Experimental data taken from US3954775A, “Thiazolo(5,4-f)quinoline-8-carboxylic acid derivatives” (Sumitomo Chemical Company, Limited, priority 1973, dated 1976).
In brackets after ≈: the same amount, converted by molar mass. Like-named read-outs stand apart in the source and are kept apart here.

What was measured:
[1] = system: gram-positive bacteria such as Staphylococcus, Streptococcus, Diplococcus; assay: in vitro antibacterial activity on gram-positive bacteria, tube dilution method; type: cell-based; settings: result in words
Excerpt: (§1) The in vitro antibacterial activities were compared with 6-ethyl-2,3,6,9-tetrahydro-3-methyl-2,9-dioxothiazolo[5,4-f]quinoline-8-carboxylic acid (hereinafter Compound (D)) and nalidixic acid (hereinafter Compound (E)) using the tube dilution method.
The antibacterial spectrum of 3-benzyl-6-benzyloxy-2,3,6,9-tetrahydro-2,9-dioxothiazolo[5,4-f]quinoline- 8-carboxylic acid (hereinafter Compoud (B)) is different from the other compounds.

[2] = system: Sarcina lutea PCI 1001; assay: in vitro antibacterial activity, tube dilution method; type: cell-based; settings: Micrococcus luteus, PCI1001, read-out: In vitro Antibacterial Activities
Excerpt: as §1

[3] = system: Proteus vulgaris HX-19; assay: as above; type: cell-based
Excerpt: as §1

[4] = system: Pseudomonas aeruginosa 104; assay: as above; type: cell-based
Excerpt: as §1

[5] = system: Proteus mirabilis GN-2425; assay: as above; type: cell-based
Excerpt: as §1

[6] = system: Escherichia coli NIHJ; assay: as above; type: cell-based; settings: read-out: In vitro Antibacterial Activities
Excerpt: as §1

[7] = system: Streptococcus hemolyticus A-1; assay: as above; type: cell-based; settings: Streptococcus pyogenes, A1, read-out: In vitro Antibacterial Activities
Excerpt: as §1

[8] = system: Bacillus subtilis PCI 219; assay: as above; type: cell-based; settings: PCI219, read-out: In vitro Antibacterial Activities
Excerpt: as §1

[9] = system: Staphylococcus aureus 209-P; assay: as above; type: cell-based; settings: read-out: In vitro Antibacterial Activities
Excerpt: as §1

[10] = system: Diplococcus pneumoniae Newfeld; assay: as above; type: cell-based; settings: Streptococcus pneumoniae, read-out: In vitro Antibacterial Activities
Excerpt: as §1

[11] = system: Staphylococcus albus 1200 A; assay: as above; type: cell-based; settings: read-out: In vitro Antibacterial Activities
Excerpt: as §1

[12] = system: Klebsiella pneumoniae PCI 602; assay: as above; type: cell-based
Excerpt: as §1

[13] = system: gram-negative bacteria; assay: in vitro antibacterial activity on gram-negative bacteria, tube dilution method; type: cell-based; settings: for antibacterial activities on gram-negative bacteria: tube dilution method, result in words
Excerpt: as §1

[14] = preliminary toxicity in rats, 9 days oral; type: in vivo, female rats of Spraugue-Dewlty-SLC strain; settings: 1000 to 2000 mg/kg/day orally for 9 days
Experimental: To 6-week old female rats of Spraugue-Dewlty-SLC strain, 1000 to 2000 mg/kg/day of Compound A were administered orally for 9 days.

[15] = urinary excretion in fasting rats after a single oral dose; type: in vivo; settings: single oral dose of 50 mg/kg
Experimental: Urinary excretions in fasting rats after a single oral dose of 50 mg/kg were also examined.
Compound (A) was excreted in the urine about 7 times faster than Compound (D). Recovery rates of Compound (A) in the urine were 2.0% after 24 hours.

[16] = system: Proteus mirabilis GN-2425; assay: in vivo protection of infected mice, oral; settings: for ED50: Proteus mirabilis, GN2425, intraperitoneal infection, oral 1 hour and 6 hours after infection, P. mirabilis GN-2425
Experimental: (§2) The mice were inoculated intraperitoneally with the test organisms in 5% gastric mucin. The test compounds were suspended in 0.5% carboxymethylcellulose and administered orally 1 hour and 6 hours after infection.

[17] = system: Escherichia coli No. 37; assay: in vivo protection of infected mice, oral; settings: intraperitoneal infection, oral 1 hour and 6 hours after infection, E. coli No. 37
Experimental: as §2

[18] = system: Escherichia coli No. 34; assay: in vivo protection of infected mice, oral; settings: for ED50: Escherichia coli, intraperitoneal infection, oral 1 hour and 6 hours after infection, E. coli No. 34
Experimental: as §2

[19] = concentrations in serum of mice after a single oral dose; type: in vivo; settings: single oral dose of 50 mg/kg
Experimental: […] concentrations in serum of Compound (A) and Compound (D) were determined in the mice after a single oral dose of 50 mg/kg. […] The peak value for Compound (A) was about 12 times higher than that of Compound (D).

[20] = prior art statement in words; cited from earlier work
[21] = prior art statement in words; cited from earlier work; remark: listed apart in the source
[22] = system: organism tested; assay: in vivo protection of infected mice, organisms tested overall; settings: oral, result in words
Experimental: as §2

[23] = system: Trichophyton rubrum; assay: antifungal activity on Sabourand agar; type: cell-based; settings: read-out: minimum inhibitory concentration
Experimental: (§3) The activities of ethyl 2,9-dichlorothiazolo[5,4-f]quinoline-8-carboxylate-6-oxide (Compound (F)) on Trichophyton rubrum and Aspergillus niger were tested on Sabourand agar. […] The minimum inhibitory concentrations were 0.78 mcg/ml for Trichophyton rubrum and 25 mcg/ml for Aspergillus niger.

[24] = system: Aspergillus niger; assay: antifungal activity on Sabourand agar; type: cell-based; settings: read-out: minimum inhibitory concentration
Experimental: as §3

[25] = system: Trichophyton rubrum and Aspergillus niger; assay: antifungal activity on Sabourand agar, fungi tested overall; type: cell-based
Experimental: as §3

[26] = HX19, Proteus vulgaris HX-19, tube dilution method, read-out: In vitro Antibacterial Activities
[27] = Pseudomonas aeruginosa 104, tube dilution method, read-out: In vitro Antibacterial Activities
[28] = GN2425, Proteus mirabilis GN-2425, tube dilution method, read-out: In vitro Antibacterial Activities
[29] = Escherichia coli NIHJ, tube dilution method
[30] = Staphylococcus aureus 209-P, tube dilution method
[31] = PCI602, Klebsiella pneumoniae PCI 602, tube dilution method, read-out: In vitro Antibacterial Activities

In the case of `O=C(O)c1cn(OCc2ccccc2)c2ccc3c(sc(=O)n3Cc3ccccc3)c2c1=O` [B, 3-benzyl-6-benzyloxy-2,3,6,9-tetrahydro-2,9-dioxothiazolo[5,4-f]quinoline-8-carboxylic acid], the “inhibitory activity on gram-positive bacteria” value [1] is reported as “exhibited inhibitory activity on gram-positive bacteria”, the MIC [2] is reported as 1.56 mg/L (≈ 3.4 µM) and the MIC [3, 26] is reported as greater than 200 mg/L. For the same compound, the MIC [4, 27] was greater than 200 mg/L, the MIC [5, 28] was greater than 200 mg/L and the MIC [6, 29] was greater than 200 mg/L. For the same compound, the MIC [7] was 1.56 mg/L (≈ 3.4 µM), the MIC [8] was 0.78 mg/L (≈ 1.7 µM) and the MIC [9, 30] was 1.56 mg/L (≈ 3.4 µM). For the same compound, the MIC [10] was 1.56 mg/L (≈ 3.4 µM), the MIC [11] was 3.13 mg/L (≈ 6.83 µM) and the MIC [12, 31] was greater than 200 mg/L.

In the case of `C=CCOn1cc(C(=O)O)c(=O)c2c3sc(=O)n(CC=C)c3ccc21` [C, 2,3,6,9-tetrahydro-3-allyl-6-allyloxy-2,9-dioxothiazolo[5,4-f]quinoline-8-carboxylic acid], the “antibacterial activities on gram-negative bacteria” value [13] is reported as “showed antibacterial activities on gram-negative bacteria”, the MIC [3, 26] is reported as 3.13 mg/L (≈ 8.73 µM) and the MIC [4, 27] is reported as greater than 200 mg/L. For the same compound, the MIC [5, 28] was greater than 200 mg/L, the MIC [6, 29] was 100 mg/L (≈ 279 µM) and the MIC [9, 30] was 50 mg/L (≈ 140 µM). For the same compound, the MIC [12, 31] was 200 mg/L (≈ 558 µM).

In the case of `COn1cc(C(=O)O)c(=O)c2c3sc(=O)n(C)c3ccc21` [Compound A, 2,3,6,9-Tetrahydro-6-methoxy-3-methyl-2,9-dioxothiazolo[5,4-f]quinoline-8-carboxylic acid], the macroscopic examinations [14] is reported as “no abnormal findings were observed”, the symptoms [14] is reported as “No significant symptoms were observed” and the “urinalysis (pH, protein, glucose, ketone bodies and occult blood)” value [14] is reported as “no abnormality was found”. For the same compound, the body weight ([14]; at all doses) was “did not decrease”, the body weight-gain ([14]; at all doses) was “slightly decreased” and the “activity in vitro compared with Compound (D)” value ([13]; comparison in words) was “as active as Compound (D)”. For the same compound, the “activity in vitro compared with Compound (E)” value ([13]; comparison with nalidixic acid in words) was “more active than Compound (E)”, the “antibacterial activities on gram-negative bacteria” value [13] was “showed antibacterial activities on gram-negative bacteria” and the MIC [3, 26] was 0.1 mg/L (≈ 0.326 µM). The MIC [4, 27] was 25 mg/L (≈ 81.6 µM), the MIC [5, 28] was 0.39 mg/L (≈ 1.27 µM) and the MIC [6, 29] was 0.2 mg/L (≈ 0.653 µM). The MIC [8] was 0.5 mg/L (≈ 1.63 µM), the MIC [9, 30] was 12.5 mg/L (≈ 40.8 µM) and the MIC [12, 31] was 0.2 mg/L (≈ 0.653 µM). For the same compound, the dose excreted at 24 h ([15]; rat, urine, after 24 hours, read-out: Recovery rates in the urine) was 2%, the “excretion in the urine, times faster than Compound (D)” value [15] was “about 7 times” and the “urinary concentration compared with Compound (D)” value ([15]; in words) was “superior to Compound (D)”. The “urinary recovery rate compared with Compound (D)” value ([15]; in words) was “superior to Compound (D)”, the ED50 [16] was 14 mg/kg and the “effectiveness in protecting mice against P. Mirabilis GN 2425, compared with Compound (D)” value ([16]; oral, comparison in words) was “more effective than Compound (D)”. The ED50 [17] was greater than 20 mg/kg, the ED50 [18] was 50 mg/kg and the “effectiveness in protecting mice against E. Coli No. 34, compared with Compound (D)” value ([18]; oral, comparison in words) was “more effective than Compound (D)”. The “time at which serum levels reached a maximum” value [19] was “within an hour” and the “peak serum value relative to Compound (D)” value ([19]; times higher than Compound (D)) was “about 12 times”.

In the case of `CCn1cc(C(=O)O)c(=O)c2c3sc(=O)n(C)c3ccc21` [Compound D, 6-ethyl-2,3,6,9-tetrahydro-3-methyl-2,9-dioxothiazolo[5,4-f]quinoline-8-carboxylic acid, reference compound], the “antibacterial activity in vivo” value [20] is given as “does not possess a sufficient antibacterial activity in vivo”, the “antibacterial activity in vitro” value [21] is given as “noticeable antibacterial activity in vitro” and the “activities on the organism tested in vivo” value [22] is given as “did not show activities on the organism tested”. It also gave an MIC [3, 26] of 0.1 mg/L (≈ 0.329 µM), an MIC [4, 27] greater than 200 mg/L and an MIC [5, 28] of 0.78 mg/L (≈ 2.56 µM). It also gave an MIC [6, 29] of 0.2 mg/L (≈ 0.657 µM), an MIC [8] of 0.25 mg/L (≈ 0.821 µM) and an MIC [9, 30] of 12.5 mg/L (≈ 41.1 µM). The MIC [12, 31] was 0.2 mg/L (≈ 0.657 µM), the ED50 [16] was greater than 40 mg/kg and the ED50 [17] was greater than 40 mg/kg. For the same compound, the ED50 [18] was greater than 100 mg/kg.

For `CCn1cc(C(=O)O)c(=O)c2ccc(C)nc21` [E, nalidixic acid, reference compound], the MIC ([3]; Proteus vulgaris, HX19, read-out: In vitro Antibacterial Activities) was 0.78 mg/L (≈ 3.36 µM), the MIC ([4]; Pseudomonas aeruginosa, 104, read-out: In vitro Antibacterial Activities) was greater than 200 mg/L and the MIC ([5]; Proteus mirabilis, GN2425, read-out: In vitro Antibacterial Activities) was 6.25 mg/L (≈ 26.9 µM). For the same compound, the MIC ([6]; Escherichia coli) was 3.13 mg/L (≈ 13.5 µM), the MIC ([9]; Staphylococcus aureus, 209P) was 100 mg/L (≈ 431 µM) and the MIC ([12]; Klebsiella pneumoniae, PCI602, read-out: In vitro Antibacterial Activities) was 3.13 mg/L (≈ 13.5 µM).

For `CCOC(=O)c1c[n+]([O-])c2ccc3nc(Cl)sc3c2c1Cl` [F, ethyl 2,9-dichlorothiazolo[5,4-f]quinoline-8-carboxylate-6-oxide], the MIC [23] was 0.78 mg/L (≈ 2.27 µM), the MIC [24] was 25 mg/L (≈ 72.8 µM) and the “inhibitory activity on the fungi tested” value ([25]; Sabourand agar, result in words) was “exhibited inhibitory activity on the fungi tested”. For the same compound, the “antifungal activity in vitro relative to griseofulvin” value ([25]; in vitro, comparison in words) was “twice as active than griseofulvin”.
